Test systems include MOLT-4 leukemia; COLO 205 colon; SNB-75 CNS; MDA-N; NCI-H522 lung; SK-OV-3 ovarian; OVCAR-5 ovarian; MDA-MB-435; LOX IMVI melanoma; K-562 leukemia.
Common to all, as to assay: growth of human tumour cells (NCI), 48 h

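1) Cells in 96-well plates. 2) Compound, 48 h, 5 concentrations. 3) Linear interpolation between surrounding doses. 4) Unreached endpoint = highest concentration. The concentration for 50% growth inhibition is given as GI50. TGI is the concentration that stops growth completely.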

Consider 11 compounds from PubChem BioAssay (NCI).

In the case of `C=CC(O)(CBr)CCC(Br)C(=C)C` (configuration not stated), the TGI in the experiment on MOLT-4 leukemia, in the experiment with COLO 205 colon, in the experiment on SNB-75 CNS, with MDA-N, in the experiment with NCI-H522 lung and in the experiment on SK-OV-3 ovarian was above 10 µM in each case. Further, the TGI in the experiment with OVCAR-5 ovarian, with MDA-MB-435, in the experiment on LOX IMVI melanoma and in the experiment on K-562 leukemia was above 10 µM in each case.

With `COC(=O)/C=C\C(C#N)(C#N)N=Cc1cccc(OC)c1`, the TGI in the experiment with MOLT-4 leukemia was found to be 17.7 µM; with COLO 205 colon, 5.06 µM; with SNB-75 CNS, 29.6 µM; in the experiment on MDA-N it was 17.2 µM; in the experiment on NCI-H522 lung, 3 µM; in the experiment on SK-OV-3 ovarian, 47.1 µM. The TGI in the experiment with OVCAR-5 ovarian was 20.1 µM; with MDA-MB-435, 13.5 µM; in the experiment with LOX IMVI melanoma, above 50.8 µM; in the experiment on K-562 leukemia, above 100 µM.

As for `Cc1nc(SCC(=O)Nc2ccc(Cl)cc2)c2sc(=S)n(-c3ccccc3)c2n1`, the TGI in the experiment with MOLT-4 leukemia, with COLO 205 colon, with SNB-75 CNS, in the experiment with MDA-N, with NCI-H522 lung and with SK-OV-3 ovarian was above 10 µM each time. Further, the TGI in the experiment on OVCAR-5 ovarian, in the experiment with MDA-MB-435, with LOX IMVI melanoma and in the experiment with K-562 leukemia was above 10 µM each time.

In the case of `CN(CC(=O)O)c1ncc2c(n1)C=CCC2`, the TGI in the experiment with MOLT-4 leukemia, in the experiment on COLO 205 colon, in the experiment with SNB-75 CNS, with MDA-N, in the experiment on NCI-H522 lung and in the experiment on SK-OV-3 ovarian was above 100 µM throughout. In addition, the TGI in the experiment on OVCAR-5 ovarian, with MDA-MB-435, in the experiment on LOX IMVI melanoma and with K-562 leukemia was above 100 µM in each case.

`CCOC(=O)/C=C(\C(=O)OCC)n1ccc(=O)n(Cc2cnnn2CCCCOC(C)=O)c1=O`: the GI50 is 2.23 µM in the experiment on MOLT-4 leukemia and 2.1 µM in the experiment on K-562 leukemia. For the same compound, the TGI was 5.19 µM with MOLT-4 leukemia; 5.8 µM in the experiment with COLO 205 colon; 31.5 µM in the experiment on SNB-75 CNS; 51.4 µM with MDA-N; 3.05 µM with NCI-H522 lung; above 75.7 µM with SK-OV-3 ovarian. The TGI in the experiment with OVCAR-5 ovarian worked out at 29.4 µM; in the experiment with MDA-MB-435, 22.9 µM; in the experiment on LOX IMVI melanoma it was 17.6 µM; in the experiment on K-562 leukemia it was 10.2 µM.

On to `CSC1NC(c2ccccc2)=C(C#N)C(=O)N1C1OCC(OC(C)=O)C(OC(C)=O)C1OC(C)=O` (configuration not stated), for which the TGI with MOLT-4 leukemia, in the experiment on COLO 205 colon, in the experiment with SNB-75 CNS, in the experiment on MDA-N, in the experiment on NCI-H522 lung and with SK-OV-3 ovarian was above 100 µM each time. The TGI with OVCAR-5 ovarian, with MDA-MB-435, in the experiment on LOX IMVI melanoma and with K-562 leukemia was above 100 µM in each case.

For the compound `CN(C)c1ccc(/C=C/c2ccc(S(N)(=O)=O)cc2)cc1`, the GI50 in the experiment on MOLT-4 leukemia is above 100 µM; in the experiment with NCI-H522 lung, 6.88 µM; in the experiment with MDA-MB-435, 7.63 µM; in the experiment with LOX IMVI melanoma it was 18.7 µM; in the experiment on K-562 leukemia, above 100 µM. The TGI in the experiment with MOLT-4 leukemia was above 100 µM; in the experiment with COLO 205 colon, 99.2 µM; in the experiment with SNB-75 CNS, 62.6 µM; with MDA-N, above 100 µM; in the experiment with NCI-H522 lung it was 25.6 µM; in the experiment with SK-OV-3 ovarian, 31.4 µM. For the same compound, the TGI was 53.6 µM in the experiment on OVCAR-5 ovarian, 23.7 µM with MDA-MB-435, above 100 µM in the experiment with LOX IMVI melanoma and above 100 µM in the experiment on K-562 leukemia.

For `COC(=O)C1Cc2ccc(O)c(O)c2CN1` (configuration not stated), the TGI in the experiment with MOLT-4 leukemia was 58.7 µM; in the experiment on COLO 205 colon, above 100 µM; with SNB-75 CNS, 34.4 µM; in the experiment on MDA-N, 30.8 µM; with NCI-H522 lung it was above 100 µM; in the experiment on SK-OV-3 ovarian it was above 100 µM. The TGI is 70.3 µM in the experiment with OVCAR-5 ovarian, 30.5 µM with MDA-MB-435, 28.4 µM with LOX IMVI melanoma and 83.6 µM in the experiment with K-562 leukemia.

In the case of `COC1CCON1C(=O)c1ccccc1` (configuration not stated), the TGI with MOLT-4 leukemia, in the experiment with COLO 205 colon, in the experiment with SNB-75 CNS, in the experiment on MDA-N, in the experiment on NCI-H522 lung and in the experiment on SK-OV-3 ovarian was above 10 µM in each case. The TGI in the experiment with OVCAR-5 ovarian, with MDA-MB-435, in the experiment on LOX IMVI melanoma and in the experiment on K-562 leukemia was above 10 µM throughout.

As for `COC(=O)c1c(C(=O)OC)c2ccccn2c1-c1cc(OC)c(Br)c(=O)o1`, the TGI in the experiment on MOLT-4 leukemia was above 100 µM; in the experiment with COLO 205 colon, above 100 µM; with SNB-75 CNS, 66.3 µM; in the experiment on MDA-N, above 100 µM; in the experiment with NCI-H522 lung, above 100 µM; in the experiment with SK-OV-3 ovarian, above 100 µM. Moreover, the TGI with OVCAR-5 ovarian, in the experiment on MDA-MB-435, in the experiment on LOX IMVI melanoma and in the experiment with K-562 leukemia was above 100 µM in each case.

In the case of `S=C(N/N=C(\c1ccccc1)c1ccccn1)NC1CCCCC1`, the TGI in the experiment on MOLT-4 leukemia, in the experiment on COLO 205 colon, in the experiment on SNB-75 CNS, with MDA-N, in the experiment with NCI-H522 lung and in the experiment on SK-OV-3 ovarian was above 100 µM each time. The TGI in the experiment with OVCAR-5 ovarian is above 100 µM; in the experiment on MDA-MB-435, above 100 µM; in the experiment with LOX IMVI melanoma, 23.6 µM; in the experiment with K-562 leukemia it was above 100 µM.
